This assay deals with Maltase-glucoamylase (Homo sapiens, UniProt O43451). Briefly: Inhibition of Alpha-glucosidase (unknown origin).
Sequence of Maltase-glucoamylase (O43451 whole entry): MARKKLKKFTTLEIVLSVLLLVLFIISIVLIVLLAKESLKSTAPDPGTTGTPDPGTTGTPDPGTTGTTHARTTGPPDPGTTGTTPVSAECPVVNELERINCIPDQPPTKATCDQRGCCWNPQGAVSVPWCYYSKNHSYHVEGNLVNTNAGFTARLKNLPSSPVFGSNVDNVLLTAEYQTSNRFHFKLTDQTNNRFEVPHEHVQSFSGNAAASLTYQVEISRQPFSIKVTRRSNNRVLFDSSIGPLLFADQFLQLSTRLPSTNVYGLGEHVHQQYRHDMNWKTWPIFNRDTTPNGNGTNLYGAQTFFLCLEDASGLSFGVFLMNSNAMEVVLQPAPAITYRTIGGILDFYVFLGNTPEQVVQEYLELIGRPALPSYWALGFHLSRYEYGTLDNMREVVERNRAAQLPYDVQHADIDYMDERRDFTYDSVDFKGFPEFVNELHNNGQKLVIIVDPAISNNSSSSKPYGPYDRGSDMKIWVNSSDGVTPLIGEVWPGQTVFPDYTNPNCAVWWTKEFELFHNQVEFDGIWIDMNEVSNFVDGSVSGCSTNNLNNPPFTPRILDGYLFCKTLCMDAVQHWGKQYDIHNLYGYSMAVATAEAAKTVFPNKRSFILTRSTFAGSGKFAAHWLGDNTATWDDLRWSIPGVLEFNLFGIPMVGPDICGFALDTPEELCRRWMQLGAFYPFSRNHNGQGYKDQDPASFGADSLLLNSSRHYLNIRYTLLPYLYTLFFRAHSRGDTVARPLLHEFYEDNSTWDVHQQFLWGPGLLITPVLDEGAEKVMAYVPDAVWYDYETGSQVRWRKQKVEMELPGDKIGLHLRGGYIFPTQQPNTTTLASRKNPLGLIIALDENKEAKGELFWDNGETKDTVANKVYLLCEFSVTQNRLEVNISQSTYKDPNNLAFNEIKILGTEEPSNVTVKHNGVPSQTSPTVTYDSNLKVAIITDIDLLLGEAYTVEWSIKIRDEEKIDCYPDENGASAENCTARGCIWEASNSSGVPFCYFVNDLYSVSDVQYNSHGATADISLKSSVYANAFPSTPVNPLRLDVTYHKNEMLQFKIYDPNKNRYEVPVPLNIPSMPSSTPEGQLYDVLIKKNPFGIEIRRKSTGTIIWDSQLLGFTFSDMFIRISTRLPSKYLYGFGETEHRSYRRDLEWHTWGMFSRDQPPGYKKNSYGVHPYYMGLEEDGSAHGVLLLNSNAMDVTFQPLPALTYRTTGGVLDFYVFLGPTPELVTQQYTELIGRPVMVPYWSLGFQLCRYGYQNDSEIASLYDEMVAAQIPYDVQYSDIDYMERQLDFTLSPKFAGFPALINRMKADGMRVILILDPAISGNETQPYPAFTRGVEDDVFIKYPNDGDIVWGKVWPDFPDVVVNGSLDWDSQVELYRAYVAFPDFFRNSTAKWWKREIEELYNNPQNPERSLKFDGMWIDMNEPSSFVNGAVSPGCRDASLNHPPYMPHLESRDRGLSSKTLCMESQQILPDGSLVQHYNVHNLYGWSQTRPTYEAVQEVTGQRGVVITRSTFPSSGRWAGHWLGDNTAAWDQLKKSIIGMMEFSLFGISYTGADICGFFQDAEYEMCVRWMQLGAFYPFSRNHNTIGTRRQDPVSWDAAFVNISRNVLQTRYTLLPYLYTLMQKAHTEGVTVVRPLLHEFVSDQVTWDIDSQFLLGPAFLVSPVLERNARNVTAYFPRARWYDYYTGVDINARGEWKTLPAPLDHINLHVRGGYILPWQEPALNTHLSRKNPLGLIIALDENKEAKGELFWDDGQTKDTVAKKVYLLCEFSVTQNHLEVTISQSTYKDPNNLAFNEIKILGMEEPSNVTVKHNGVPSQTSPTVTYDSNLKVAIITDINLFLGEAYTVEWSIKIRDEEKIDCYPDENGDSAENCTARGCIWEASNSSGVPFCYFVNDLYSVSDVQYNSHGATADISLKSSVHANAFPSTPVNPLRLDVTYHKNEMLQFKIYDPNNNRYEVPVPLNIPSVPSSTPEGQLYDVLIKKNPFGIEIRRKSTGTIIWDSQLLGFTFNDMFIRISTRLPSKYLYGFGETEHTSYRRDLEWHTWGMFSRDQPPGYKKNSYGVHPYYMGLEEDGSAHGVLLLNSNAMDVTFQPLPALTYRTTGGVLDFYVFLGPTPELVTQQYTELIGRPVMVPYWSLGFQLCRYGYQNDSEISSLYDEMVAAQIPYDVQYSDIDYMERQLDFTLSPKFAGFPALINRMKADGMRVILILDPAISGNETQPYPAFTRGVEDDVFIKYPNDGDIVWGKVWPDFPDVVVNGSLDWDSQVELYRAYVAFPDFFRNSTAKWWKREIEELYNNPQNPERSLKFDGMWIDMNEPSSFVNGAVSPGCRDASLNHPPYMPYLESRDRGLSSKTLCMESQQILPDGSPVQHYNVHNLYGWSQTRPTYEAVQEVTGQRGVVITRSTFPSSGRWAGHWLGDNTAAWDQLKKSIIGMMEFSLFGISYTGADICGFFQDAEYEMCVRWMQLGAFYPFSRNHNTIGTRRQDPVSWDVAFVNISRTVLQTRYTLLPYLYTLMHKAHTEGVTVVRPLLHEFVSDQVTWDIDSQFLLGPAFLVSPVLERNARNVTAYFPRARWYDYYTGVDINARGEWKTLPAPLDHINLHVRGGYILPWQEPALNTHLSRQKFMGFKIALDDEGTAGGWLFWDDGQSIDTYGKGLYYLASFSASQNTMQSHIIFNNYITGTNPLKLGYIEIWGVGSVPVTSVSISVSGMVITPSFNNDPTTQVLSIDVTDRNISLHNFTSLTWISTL

For the compound `CC/C=C\C/C=C\CCC(=O)O[C@@]12[C@H](OC(=O)[C@@H](C)CC)[C@@H](C)[C@@]3(O)[C@@H](C(=O)C(CO)=C[C@]4(O)C(=O)C(C)=C[C@@H]34)[C@@H]1C2(C)C`, the IC50 came to 15.3 µM.

What is called IC50 is the concentration at which inhibition is half-maximal. Read a high IC50 as weaker potency in that assay.

(Values after BindingDB's records for PubMed 35080403 (Yunnan University of Chinese Medicine, 2022).)
